Experimental data taken from patent publication US8461205B2, “Anthranilic acid derivatives” (Chelsea Therapeutics, Inc., priority 2007, dated 2013).
One block for each compound: values may come before it.

Legend:
cell proliferation = conditions: effect stated to be unrelated to DHODH inhibition; cited from earlier work
DHODH = DHODH (Homo sapiens, UniProt Q02127); experiment: DHODH inhibition; format: biochemical
[1] = system: human T lymphoblast cell line (Jurkat); experiment: Inhibition of T-cell proliferation (Jurkat, 3H-TdR incorporation); format: cell-based
Protocol: Inhibition of T cell proliferation was studied in a functional assay. A human T lymphoblast cell line (Jurkat) was cultured in the presence and absence, respectively, of DHODH inhibiting compounds. Jurkat cells were seeded in microtiterplates at a concentration of 5×10^5/mL in RPMI 1640 growth media supplemented with ultraglutamin, 10% fetal calf serum, 1 mM sodium pyruvat, 10 mM HEPES and 0.1 mg/mL gentamycin. A dilution series of ten different concentrations of inhibitor was added to the wells and the plates were kept in a cell incubator for 3 days. At the beginning of the last 4 hours period, the cultures were pulsed with 10 μl/well 0.1 Ci/mmol 3H-TdR and then harvested on filter papers and counted with a ([…]. The IC50 values for each compound were calculated from the obtained dose response curves. Adding uridine to a concentration of about 50 μM in the wells monitored the specificity for the mechanism i.e., the inhibition of cell proliferation is due to DHODH inhibition and not to a general cell toxicity of the compounds. This addition of uridine reverses the anti-proliferative effect by bypassing the DHODH enzyme using an external source of pyrimidine. Results in respect of a number of compounds of the invention are reported as Jurkat IC50 (in μM) in Table 1.
(§1) The inhibition of T cell proliferation was studied in a human T lymphoblast cell line (Jurkat). The IC50 value for each compound was calculated from the dose response curve. Adding uridine was used to monitor the specificity of the DHODH mechanism. The metabolic stability was studied in human liver microsomes. Table 1 exemplifies the invention, without limiting the scope thereof.

[2] = Metabolic stability in human liver microsomes; format: in vitro ADME; conditions: human in vitro system, cf. Table 1
Protocol: The metabolic stability of the test compounds was determined using human liver microsomes. Incubations were performed with a compound concentration of 0.5 μM and a protein concentration of 1 mg/mL in 50 mM sodium phosphate buffer at physiological pH (7.4) and temperature (37° C.). The incubation mixture was preincubated at 37° C. prior to addition of NADPH (1 mM, final concentration). At several time points during 60 minutes, aliquots were removed and added to a 96 well plate placed on dry ice and deep-frozen. Samples were analyzed with LC-MS for concentration of parent compound. From the slope of the log [parent compound] vs. incubation time regression line, the in vitro half-life […] was determined. The intrinsic clearance (CLint) can be calculated using a modified Michaelis-Menten relationship, i.e., CLint=ln 2/t1/2. The CLint can then be converted to CL by using the well-stirred model of hepatic extraction. A value of 1.24 L/h/kg of the hepatic blood flow in man can be used. Results with respect to a number of compounds of the invention are reported as t1/2 (in minutes) in Table 1.
as §1

DHODH, sequence (Q02127 whole entry, species assumed): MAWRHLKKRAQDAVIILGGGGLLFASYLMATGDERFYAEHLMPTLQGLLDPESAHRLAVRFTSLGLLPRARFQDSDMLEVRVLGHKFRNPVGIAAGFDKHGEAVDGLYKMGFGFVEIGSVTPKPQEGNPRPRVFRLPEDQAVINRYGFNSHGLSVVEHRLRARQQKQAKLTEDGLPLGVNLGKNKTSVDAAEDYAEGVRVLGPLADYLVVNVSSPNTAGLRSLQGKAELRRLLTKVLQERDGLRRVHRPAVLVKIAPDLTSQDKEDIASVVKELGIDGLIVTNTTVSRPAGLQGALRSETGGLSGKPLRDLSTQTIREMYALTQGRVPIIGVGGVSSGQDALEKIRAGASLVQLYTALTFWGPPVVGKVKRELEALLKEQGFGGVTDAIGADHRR

SMILES: COC(=O)c1cc(OCc2cc(OC)ccc2OC)ccc1NC(C)=O [2-acetylamino-5-(2,5-dimethoxy-benzyloxy)-benzoic acid methyl ester]
inhibition of cell proliferation (in words) (cell proliferation): inhibits cell proliferation

activity as DHODH inhibitor (in words) (DHODH): inactive
SMILES: COc1ccc(OC)c(COc2ccc(O)c(C(=O)O)c2)c1 [5-(2,5-dimethoxy-benzyloxy)-2-hydroxy-benzoic acid]

IC50 ([1]; Homo sapiens, Jurkat cells, 3 days culture, 3H-TdR pulse last 4 hours): 6.2 µM
oxidation half-life / stability towards oxidation by human P450 (in words) [2]: short half-life
SMILES: COc1ccc(OC)c(COc2ccc(NC(C)=O)c(C(=O)O)c2)c1 [REF 8, 2-acetylamino-5-(2,5-dimethoxy-benzyloxy)-benzoic acid, reference compound]
inhibitory effect on T-cell proliferation (in words) ([1]; Jurkat, cf. Table 1): only a weak inhibitory effect
